Activity calls are given as the source filed them. No cut-off for these calls is given here.
What was measured:
A549 [1] = assay: Anticancer activity against cisplatin-resistant human A549 cells assessed as reduction in cell viability measured after 48 hrs in presence of cisplatin by MTT assay; format: functional, cell-based; conditions: A549, 48 h
A549 [2] = assay: Induction of apoptosis in cisplatin-resistant human A549 cells assessed as necrotic cells at 20 uM incubated for 24 hrs by AnnexinV-FITC/PI staining based flow cytometry (reference value: 0.53%); format: functional
A549 [3] = assay: Induction of apoptosis in cisplatin-resistant human A549 cells assessed as viable cells at 20 uM incubated for 24 hrs by AnnexinV-FITC/PI staining based flow cytometry (reference value: 86.5%); format: functional; conditions: read-out: Activity
A549 [4] = assay: Downregulation of NQO-1 protein expression in cisplatin-resistant human A549 cells at 15 uM incubated for 48 hrs in presence of cisplatin by western blot analysis; format: functional, cell-based
A549 [5] = assay: Downregulation of HO-1 protein expression in cisplatin-resistant human A549 cells at 15 uM incubated for 48 hrs by western blot analysis; format: functional, cell-based
A549 [6] = assay: Induction of apoptosis in cisplatin-resistant human A549 cells assessed as late apoptotic cells at 10 uM incubated for 24 hrs by AnnexinV-FITC/PI staining based flow cytometry (reference value: 10.8%); format: functional
A549 [7] = assay: Induction of apoptosis in cisplatin-resistant human A549 cells assessed as late apoptotic cells at 20 uM incubated for 24 hrs by AnnexinV-FITC/PI staining based flow cytometry (reference value: 10.8%); format: functional
A549 [8] = assay: Synergistic antiproliferative activity against cisplatin-resistant human A549 cells assessed as combination index at 10 uM incubated for 48 hrs in presence of 1.5 uM cisplatin by MTT assay; format: functional
A549 [9] = assay: Synergistic antiproliferative activity against cisplatin-resistant human A549 cells assessed as combination index at 15 uM incubated for 48 hrs in presence of 3 uM cisplatin by MTT assay; format: functional
A549 [10] = assay: Synergistic antiproliferative activity against cisplatin-resistant human A549 cells assessed as combination index at 20 uM incubated for 48 hrs in presence of 1.5 uM cisplatin by MTT assay; format: functional
A549 [11] = assay: Downregulation of HO-1 protein expression in cisplatin-resistant human A549 cells at 15 uM incubated for 48 hrs in presence of cisplatin by western blot analysis; format: functional, cell-based
A549 [12] = assay: Synergistic antiproliferative activity against cisplatin-resistant human A549 cells assessed as combination index at 20 uM incubated for 48 hrs in presence of 3 uM cisplatin by MTT assay; format: functional
A549 [13] = assay: Induction of intracellular ROS generation in cisplatin-resistant human A549 cells measured after 24 hrs by DCFH-DA staining based laser scanning confocal microscopy; format: functional, cell-based; conditions: dose 10-20 µM
A549 [14] = assay: Synergistic antiproliferative activity against cisplatin-resistant human A549 cells assessed as combination index at 20 uM incubated for 48 hrs in presence of 4.5 uM cisplatin by MTT assay; format: functional
A549 [15] = assay: Induction of apoptosis in cisplatin-resistant human A549 cells assessed as early apoptotic cells at 20 uM incubated for 24 hrs by AnnexinV-FITC/PI staining based flow cytometry (reference value: 2.17%); format: functional
A549 [16] = assay: Downregulation of AKT protein expression in cisplatin-resistant human A549 cells at 15 uM incubated for 48 hrs in presence of cisplatin by western blot analysis; format: functional, cell-based
A549 [17] = assay: Synergistic antiproliferative activity against cisplatin-resistant human A549 cells assessed as combination index at 10 uM incubated for 48 hrs in presence of 4.5 uM cisplatin by MTT assay; format: functional
A549 [18] = assay: Induction of apoptosis in cisplatin-resistant human A549 cells assessed as early apoptotic cells at 10 uM incubated for 24 hrs by AnnexinV-FITC/PI staining based flow cytometry (reference value: 2.17%); format: functional
A549 [19] = assay: Induction of apoptosis in cisplatin-resistant human A549 cells assessed as necrotic cells at 10 uM incubated for 24 hrs by AnnexinV-FITC/PI staining based flow cytometry (reference value: 0.53%); format: functional
A549 [20] = assay: Induction of apoptosis in cisplatin-resistant human A549 cells assessed as viable cells at 10 uM incubated for 24 hrs by AnnexinV-FITC/PI staining based flow cytometry (reference value: 86.5%); format: functional; conditions: read-out: Activity
A549 [21] = assay: Synergistic antiproliferative activity against cisplatin-resistant human A549 cells assessed as combination index at 15 uM incubated for 48 hrs in presence of 4.5 uM cisplatin by MTT assay; format: functional
A549 [22] = assay: Synergistic antiproliferative activity against cisplatin-resistant human A549 cells assessed as combination index at 15 uM incubated for 48 hrs in presence of 1.5 uM cisplatin by MTT assay; format: functional
A549 [23] = assay: Downregulation of Nrf2 protein expression in cisplatin-resistant human A549 cells at 15 uM incubated for 48 hrs in presence of cisplatin by western blot analysis; format: functional, cell-based
A549 [24] = assay: Inhibition of redox balance in cisplatin-resistant human A549 cells assessed as reduction in ratio of GSH/GSSG measured after 24 hrs; format: functional, cell-based; conditions: dose 10-20 µM
A549 [25] = assay: Synergistic antiproliferative activity against cisplatin-resistant human A549 cells assessed as combination index at 10 uM incubated for 48 hrs in presence of 3 uM cisplatin by MTT assay; format: functional

COc1cc(OC)c2c(c1)c(-c1c(O)cc3cc4oc(C)cc(=O)c4c(O)c3c1OC)c(O)c1c(=O)cc(C)oc12
IC50 (A549 [1]): > 20 µM

COc1cc(OC)c2c(c1)c(-c1c(OC)cc3cc(O)c4c(=O)cc(C)oc4c3c1OC)c(O)c1c(=O)cc(C)oc12
IC50 (A549 [1]): > 20 µM

O=C1C=C2O[C@H]3CC(=O)c4c(O)cc(O)cc4C3=C2c2cc(O)cc(O)c21
IC50 (A549 [1]): > 20 µM

COc1cc(OC)c2c(O)c3c(=O)cc(C)oc3c(-c3c(OC)cc4cc(O)c5c(=O)cc(C)oc5c4c3OC)c2c1 [FONSECINONE A]
IC50 (A549 [1]): > 20 µM

COc1cc(O)cc2cc3oc(C)cc(=O)c3c(O)c12
IC50 (A549 [1]): > 20 µM

COc1cc(O)cc2cc(O)c3c(=O)cc(C)oc3c12
Activity (A549 [2]): 1.34% | viability at 20 µM (A549 [3]): 53.3% | inhibition (A549 [4]): Active | inhibition (A549 [5]): Active | IC50 (A549 [1]): > 20 µM | Activity (A549 [6]): 23.6% | Activity (A549 [7]): 41.3% | CI (A549 [8]): 1.95 | CI (A549 [9]): 0.72 | CI (A549 [10]): 0.76 | inhibition (A549 [11]): Active | CI (A549 [12]): 0.76 | Activity (A549 [13]): Dose-Dependent Effect | CI (A549 [14]): 0.81 | Activity (A549 [15]): 4.05% | inhibition (A549 [16]): Active | CI (A549 [17]): 0.83 | Activity (A549 [18]): 2.87% | Activity (A549 [19]): 0.9% | viability at 10 µM (A549 [20]): 72.6% | CI (A549 [21]): 0.79 | CI (A549 [22]): 0.75 | inhibition (A549 [23]): Active | inhibition (A549 [24]): Dose-Dependent Effect | CI (A549 [25]): 0.95

COc1cc(OC)c2c(O)c3c(=O)cc(C)oc3c(-c3c(O)cc4cc5oc(C)cc(=O)c5c(O)c4c3OC)c2c1
IC50 (A549 [1]): > 20 µM

COc1cc(OC)c2c(O)c3c(=O)cc(C)oc3c(-c3c(OC)cc4cc5oc(C)cc(=O)c5c(O)c4c3OC)c2c1 [AURASPERONE A]
IC50 (A549 [1]): > 20 µM

COc1cc(OC)c2c(O)c3c(c(-c4c(OC)cc5cc(O)c6c(=O)cc(C)oc6c5c4OC)c2c1)O[C@](C)(O)CC3=O
IC50 (A549 [1]): > 20 µM

COc1cc(OC)c2c(O)c3c(=O)cc(C)oc3cc2c1 [RUBROFUSARIN B]
IC50 (A549 [1]): > 20 µM

COc1cc(OC)c2c(c1)c(-c1c(OC)cc3cc4oc(C)cc(=O)c4c(O)c3c1OC)c(O)c1c(=O)cc(C)oc12 [ASPERPYRONE C]
IC50 (A549 [1]): > 20 µM

COc1cc(OC)c2c(O)c3c(=O)cc(C)oc3c(-c3c(O)cc4cc(O)c5c(=O)cc(C)oc5c4c3OC)c2c1 [ASPERPYRONE A]
IC50 (A549 [1]): > 20 µM

Source: ChEMBL document CHEMBL4834462, “Naphtho-γ-pyrone Dimers from an Endozoic Aspergillus niger and the Effects of Coisolated Monomers in Combination with Cisplatin on a Cisplatin-Resistant A549 Cell Line” (J Nat Prod, 2021)
